Results on 18 molecules are retold here after patent US20140057895A1, “INDAZOLE- AND PYRROLOPYRIDINE-DERIVATIVE AND PHARMACEUTICAL USE THEREOF” (priority 2011, published 2014).

Assay [1] concerns the target T1, human 5-HT4b receptor (Homo sapiens, UniProt Q13639).
T1 construct: expressed in transfected cells; host or cells: CHO cells (G418 selection)
As to the kind of experiment: Test Example 2: Serotonin 4 (5-HT4) receptor agonist activity assay, cAMP HTRF in CHO cells (Table 97). The format is cell-based. The following applies: cAMP in CHO cells expressing human 5-HT4b receptor, mean value; for Emax: 0.25 h, intrinsic activity, maximal activity of 5-HT defined as 100%, read-out: IA (%); for EC50: concentration showing 50% of IA. On the procedure: The cAMP measurement test used herein was carried out by using CISBIO HTRF (trademark) cAMP Hirange kit according to the manufacturer's instructions attached therewith.
CHO cells expressing human 5-HT4b receptor were incubated in Medium 1 [DMEM/1% NEAA, 1% penicillin/streptomycin (P/S), 0.2 mg/mL GENETICIN (G418), 10% FBS] at 37° C. under 5% CO2 condition. Then, the cells were put into Medium 2 (DMEM/10000 cut FBS, G-418, P/S, NEAA) for 1 to 2 hours, and collected by treating with trypsin containing EDTA. The collected cells were suspended in Assay Buffer 1 [100 mM Hanks/HEPES buffer (pH 7.4)], the suspended cells were mixed with the testing compound on 384-well plates, and the cells were incubated at 31° C. for 15 minutes. To the cells were added cAMP-cryptate solution and cAMP-d2 solution, and they were incubated at room temperature for 1 hour. Then, time-resolved fluorescence was measured by En Vision (excitation wavelength: 330 nm, fluorescence wavelength: 620/665 nm). An intrinsic activity of the compound [IA (%)] and a concentration showing 50% of IA [EC50 (nM)] were calculated from the obtained results. In particular, the intrinsic activity (IA) was calculated on the basis of the maximal activity of 5-HT (measured from 10^−11 M to 10^−7 M) defined as 100%.
(§1) In the following table, the compounds used in the test are shown in numbers which correspond to the Example numbers above where the preparations of the compounds are described.
In general terms: Time-resolved FRET reads energy transfer from a long-lived donor to a nearby acceptor.

Assay [2] concerns the target T2, 5-HT4 receptor (Cavia porcellus, UniProt O70528).
T2 construct: striatum was isolated which was cryopreserved at −80° C. until use; from tissue; host or cells: guinea pig (Slc-Hartley) striatum membranes
As to the kind of experiment: Test Example 1: Serotonin 4 (5-HT4) receptor binding assay, [3H]-GR113808, guinea pig striatum membranes (Table 96). The following applies: Guinea pig 5-HT4 receptor binding assay, [3H]-GR113808, striatum membranes; mean value of each group. On the procedure: The 5-HT4 receptor binding assay and preparations of receptor membrane preparations herein were carried out according to a method of Grossman et al. [see, British J. Pharmacol., (1993) 109, 618].
Slc-Hartley guinea pigs (body weight 300 g to 400 g) were decapitated to remove brain rapidly, and striatum was isolated which was cryopreserved at −80° C. until use. To the obtained tissues were added fifteen fold of Hepes buffer (50 mM, pH 7.4, 4° C.), and the mixture was homogenized by Teflon (trademark) homogenizer and centrifuged at 48,000×g (4° C.) for 15 minutes. To the resulting precipitate was added Hepes buffer (1 ml) to 30 mg by wet weight of tissues, and the mixture was suspended to give receptor membrane preparations.
To an assay tube were added 0.1 nM [^3H]-GR113808 {chemical name: [1-[2-(methylsulfonylamino)ethyl]-4-piperidinyl]methyl 1-methylindole-3-carboxylate}, receptor membrane preparations, and Hepes buffer (50 mM, pH 7.4, 4° C., 1 ml) containing test compounds or 30 μM serotonin; and the mixture was incubated at 37° C. for 30 minutes. On quenching the reaction, the mixture was rapidly filtered on whatman GF/B filter, which was presoaked in 0.1% polyethyleneimine for 1 hour, by using Brandel cell Harvester, and washed with ice-cooled 50 mM Tris-HCl (pH 7.7, 4 ml) three times. To the filter after filtration was added a liquid scintillator (Ecoscint), and then a radioactivity was determined by a liquid scintillation counter.
50% Inhibition concentrations (IC50) were determined from inhibition rates of test compounds to specific bindings which were obtained by subtracting nonspecific bindings from total binding amounts of [^3H]-GR113808.
as §1

In assay [3] the target is T2, 5-HT4 receptor. As to the kind of experiment: Test Example 3: Guinea pig 5-HT4 receptor binding assay, [3H]-GR113808, striatum membranes (Table 98). The following applies: Guinea pig 5-HT4 receptor binding assay, [3H]-GR113808, striatum membranes; mean value of each group; read-out: IC50. The gist of the method:
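Striatal membranes from Slc-Hartley guinea pigs were incubated with 0.1 nM [3H]-GR113808 and test compounds in 50 mM Hepes pH 7.4 at 37° C for 30 min; nonspecific binding was defined with 30 μM serotonin. Bound radioactivity was collected by filtration, and IC50 was derived from inhibition of specific binding.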

Assay [4] deals with T1, human 5-HT4b receptor. As to the kind of experiment: Test Example 4: Serotonin 4 (5-HT4) receptor agonist activity assay, cAMP HTRF in CHO cells (Table 100). The format is cell-based. The settings on record: mean value; for Emax: CHO, 0.25 h, intrinsic activity, maximal activity of 5-HT defined as 100%, read-out: IA (%); for EC50: concentration showing 50% of IA. A digest of the protocol: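 Read-out is HTRF cAMP (time-resolved fluorescence 620/665 nm after 1 h RT with cAMP-cryptate and cAMP-d2), from recombinant CHO cells bearing human 5-HT4b treated with compound 15 min at 31° C. in Hanks/HEPES buffer pH 7.4. IA (%) scaled to peak 5-HT effect over 10^−11–10^−7 M; EC50 is concentration giving half that IA.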

Assay [5] has as its target T3, Human 5-HT4 receptor (5-HT4b) (Homo sapiens, UniProt Q13639).
T3 construct: expressed in transfected cells; membrane preparation
As to the kind of experiment: Test Example 3: Human 5-HT4 receptor binding assay, membranes of CHO-K1 cells stably expressing 5-HT4b receptors (Table 99). The settings on record: mean value of each group. The gist of the method:
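Radioligand displacement: [3H]-GR113808 (0.1 nM) bound to CHO-K1 5-HT4b membranes for 30 min at 37 °C in Hepes buffer (50 mM, pH 7.4). Specific binding is total minus that with 30 μM serotonin; filter-bound radioactivity counted, IC50 derived from percent inhibition.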

Where a name gives a salt, the structure may show the parent alone.

T2 sequence (O70528 whole entry): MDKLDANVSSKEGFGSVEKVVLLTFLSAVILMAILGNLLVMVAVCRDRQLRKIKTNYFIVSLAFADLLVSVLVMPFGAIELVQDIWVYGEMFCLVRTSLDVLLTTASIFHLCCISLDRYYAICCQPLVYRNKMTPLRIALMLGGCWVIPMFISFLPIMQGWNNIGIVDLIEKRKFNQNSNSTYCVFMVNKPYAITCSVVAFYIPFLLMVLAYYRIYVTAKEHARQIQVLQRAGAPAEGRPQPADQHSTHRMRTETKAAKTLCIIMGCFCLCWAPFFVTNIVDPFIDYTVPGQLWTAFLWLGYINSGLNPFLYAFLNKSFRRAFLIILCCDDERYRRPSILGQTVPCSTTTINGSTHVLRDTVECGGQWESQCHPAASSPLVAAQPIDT
T1 sequence (Q13639 whole entry): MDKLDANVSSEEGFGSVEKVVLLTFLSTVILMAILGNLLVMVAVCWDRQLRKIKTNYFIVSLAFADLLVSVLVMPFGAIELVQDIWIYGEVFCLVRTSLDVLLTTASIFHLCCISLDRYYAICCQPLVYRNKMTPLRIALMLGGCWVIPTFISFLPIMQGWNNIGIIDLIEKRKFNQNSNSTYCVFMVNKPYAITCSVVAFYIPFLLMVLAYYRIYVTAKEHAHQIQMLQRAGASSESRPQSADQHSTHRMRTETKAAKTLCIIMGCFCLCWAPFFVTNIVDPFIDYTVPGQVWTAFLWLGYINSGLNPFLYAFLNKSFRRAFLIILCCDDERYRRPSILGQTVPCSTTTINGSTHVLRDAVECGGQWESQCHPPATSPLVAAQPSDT
T3 sequence (Q13639 whole entry): as above

Consider `COCCCN1CCC(c2nc(-n3nc(C(C)C)c4ccccc43)no2)CC1` [Example 85, 1-{5-[1-(3-methoxypropyl)piperidin-4-yl]-1,2,4-oxadiazol-3-yl}-3-(propan-2-yl)-1H-indazole], for which, in assay [1], the Emax came to 125% and the response was half-maximal at 8.3 nM (EC50). Moreover, the 50% inhibitory concentration (IC50) (in general, the midpoint of a concentration-inhibition curve) in assay [2] worked out at 31.1 nM.
Taken in the same sequence, the figures for `CCc1nn(-c2noc(C3CCN(CCCOC)CC3)n2)c2ccccc12` [Example 87, 3-ethyl-1-{5-[1-(3-methoxypropyl)piperidin-4-yl]-1,2,4-oxadiazol-3-yl}-1H-indazole trifluoroacetate] were 80%, 9.4 nM and 21 nM.
Taken in the same sequence, the figures for `COCCCN1CCC(c2nc(-n3nc(C4CC4)c4ccccc43)no2)CC1` [Example 88, 3-cyclopropyl-1-{5-[1-(3-methoxypropyl)piperidin-4-yl]-1,2,4-oxadiazol-3-yl}-1H-indazole trifluoroacetate] were 37%, 16.4 nM and 33.5 nM.
Taken in the same sequence, the figures for `CCc1nn(-c2noc(C3CCN(CCCOC)CC3)n2)c2cc(F)ccc12` [Example 92, 3-ethyl-6-fluoro-1-{5-[1-(3-methoxypropyl)piperidin-4-yl]-1,2,4-oxadiazol-3-yl}-1H-indazole] were 92%, 6.5 nM and < 20 nM.
Regarding `CCc1nn(-c2noc(C3CCN(CCCOC)CC3)n2)c2c(F)cccc12` [Example 95, 3-ethyl-7-fluoro-1-{5-[1-(3-methoxypropyl)piperidin-4-yl]-1,2,4-oxadiazol-3-yl}-1H-indazole], in assay [1], the Emax worked out at 43% and a half-maximal effect (EC50) was put at 3.7 nM. For the same molecule, in assay [2], the IC50 is < 20 nM.
For the molecule `CC(C)CN1CCC(c2nc(-n3nc(C(C)C)c4ccccc43)no2)CC1` [Example 98, 1-{5-[1-(2-methylpropyl)piperidin-4-yl]-1,2,4-oxadiazol-3-yl}-3-(propan-2-yl)-1H-indazole trifluoroacetate], in assay [1], the Emax turned out to be 110% and the EC50 (commonly the concentration that produces a half-maximal response) is 15.5 nM. The IC50 in assay [2] came to 32.1 nM.
As for `CCc1nn(-c2noc(C3CCN(C(C)CC)CC3)n2)c2ccccc12` (centres unmarked) [Example 101, 1-{5-[1-(butan-2-yl)piperidin-4-yl]-1,2,4-oxadiazol-3-yl}-3-ethyl-1H-indazole trifluoroacetate], in assay [1], the Emax came to 70% and it took 8.9 nM to reach a half-maximal effect (EC50). The IC50 in assay [2] was < 20 nM.
With `CCC(C)N1CCC(c2nc(-n3nc(C4CC4)c4ccccc43)no2)CC1` (centres unmarked) [Example 102, 1-{5-[1-(butan-2-yl)piperidin-4-yl]-1,2,4-oxadiazol-3-yl}-3-cyclopropyl-1H-indazole trifluoroacetate], in assay [1], the Emax came out at 26% and the EC50 was 8 nM. Further, the half-inhibitory concentration (IC50) in assay [2] is < 20 nM.
On the same counts, the results for `CCc1nn(-c2noc(C3CCN(CC(C)C)CC3)n2)c2ccccc12` [Example 103, 3-ethyl-1-(5-[1-(2-methylpropyl)piperidin-4-yl]-1,2,4-oxadiazol-3-yl}-1H-indazole] are 59%, 11 nM and < 20 nM.
Take `CCc1nn(-c2noc(C3CCN(CC4CC4)CC3)n2)c2ccccc12` [Example 112, 1-{5-[1-(cyclopropylmethyl)piperidin-4-yl]-1,2,4-oxadiazol-3-yl}-3-ethyl-1H-indazole trifluoroacetate]: in assay [1], the Emax stood at 73% and the EC50 is 24.9 nM. This molecule gave a concentration for half-maximal inhibition (IC50) in assay [2] of 26.4 nM.
Taken in the same sequence, the figures for `CCC(C)N1CCC(c2nc(-n3nc(C4CCC4)c4ccccc43)no2)CC1` (centres unmarked) [Example 114, 1-{5-[1-(butan-2-yl)piperidin-4-yl]-1,2,4-oxadiazol-3-yl}-3-cyclobutyl-1H-indazole trifluoroacetate] were 68%, 53 nM and 26.2 nM.
Taken in the same sequence, the figures for `CC(C)CN1CCC(c2nc(-n3nc(C4CCC4)c4ccccc43)no2)CC1` [Example 115, 3-cyclobutyl-1-{5-[1-{2-methylpropyl)piperidin-4-yl]-1,2,4-oxadiazol-3-yl}-1H-indazole trifluoroacetate] were 58%, 153 nM and 40.2 nM.
On the same counts, the results for `CCCN1CCC(c2nc(-n3nc(C(C)C)c4ccccc43)no2)CC1` [Example 117, 3-(propan-2-yl)-1-[5-(1-propylpiperidin-4-yl)-1,2,4-oxadiazol-3-yl]-1H-indazole trifluoroacetate] are 83%, 29.5 nM and 25.9 nM.
As to `CCc1nn(-c2noc(C3CCN(CCC4CCCO4)CC3)n2)c2cc(F)ccc12` (centres unmarked) [Example 131, 3-ethyl-6-fluoro-1-(5-{1-[2-(tetrahydrofuran-2-yl)ethyl]piperidin-4-yl}-1,2,4-oxadiazol-3-yl)-1H-indazole], in assay [1], the Emax came to 77% and the EC50 was found to be 9.3 nM. In addition, the IC50 in assay [2] is < 20 nM.
Regarding `CCc1nn(-c2noc(C3CCN(CC4CCCO4)CC3)n2)c2ccccc12` (centres unmarked) [Example 132, 3-ethyl-1-{5-[1-(tetrahydrofuran-2-ylmethyl)piperidin-4-yl]-1,2,4-oxadiazol-3-yl}-1H-indazole], in assay [1], the Emax came out at 29% and the EC50 came to 14.7 nM. Also, the IC50 in assay [2] is < 20 nM.
For `CCc1nn(-c2noc(C3CCN(CC4CN(C(=O)COC)C4)CC3)n2)c2c(F)cccc12` [Example 224, 1-[3-({4-[3-(3-ethyl-7-fluoro-1H-indazol-1-yl)-1,2,4-oxadiazol-5-yl]piperidin-1-yl}methyl)azetidin-1-yl]-2-methoxyethanone hydrochloride], the IC50 in assay [3] was < 20 nM. For the same molecule, in assay [4], the Emax turned out to be 73.9% and the response was half-maximal at 6.7 nM (EC50). Also, in assay [2], the IC50 is < 20 nM.
`CCN[C@H]1C[C@@H](c2nc(-n3nc(CC)c4ccc(F)cc43)no2)C1` [Example 278, cis-N-ethyl-3-[3-(3-ethyl-6-fluoro-1H-indazol-1-yl)-1,2,4-oxadiazol-5-yl]cyclobutanamine]: the IC50 in assay [2] is < 20 nM.
With `CC(C)c1nn(-c2noc([C@H]3CC[C@@H](NCC4CCN(S(C)(=O)=O)CC4)CC3)n2)c2c(F)cccc12` [Example 618, cis-4-{3-[7-fluoro-3-(propan-2-yl)-1H-indazol-1-yl]-1,2,4-oxadiazol-5-yl}-N-{[1-(methylsulfonyl)piperidin-4-yl]methyl}cyclohexanamine], the IC50 in assay [5] was < 20 nM. For the same molecule, in assay [4], the Emax is 32% and the EC50 is 6.2 nM.
